# Reference: patent US11771672B2, “Use of 2-hydroxyoleic acid for the treatment of systemic lupus erythematosus and other immune pathologies” (THE RESEARCH FOUNDATION FOR THE STATE UNIVERSITY OF NEW YORK, priority 2017, dated 2023)
# Read-outs that look alike come from different tables or passages of the source.
# What was measured:
# [1] = tested on: SMS; conditions: cited from earlier work
# [2] = tested on: PKCδ; assay: Western blot analysis of nuclear PKCδ (PKCδ nuclear translocation) in splenic B cells; type: cell-based, mouse
# From the text: Generally speaking, PKCs are known to receive DAG on the plasma membrane for their full activation and subsequent subcellular translocation. However, in B cells, the plasma membrane DAG provider that activates PKCδ nuclear translocation is still unknown. Whether SMS2 was the DAG provider for PKCδ activation in mature B cells was therefore tested. In contrast to Sgms2^+/+ naive B cells, nuclear PKCδ was barely detectable in the Sgms2^−/− naive B cells following 24 hr culture. […] This DAG analog-dependent effect supported the involvement of SMS2-derived DAG in activation of PKCδ nuclear translocation.
# To further clarify the mechanism that regulates PKCδ activation by SMS2-generated DAG, whether enhancing SMS2 activity could correspondingly increase PKCδ nuclear translocation in cultured Sgms2^+/+ B cells was tested.
# 293T cells were transfected with plasmid vectors to overexpress FLAG-tagged different SMS2 portions as indicated. Protein lysates from transfected 293T cells were immunoprecipitated with anti-FLAG antibody and then immunoblotted with anti-PKCδ antibody. Sample loading was controlled by inputs of cell lysates. […] Thus, SMS2 is a critical and direct PKCδ activator in mature B cells.
# [3] = biological target: T1, SMS2 (Mus musculus, UniProt Q9D4B1); assay: Elisa analysis of plasma membrane DAG levels in B cells; type: cell-based; conditions: purified Sgms2+/+ B cells
# T1 construct: endogenous in cells; host or cells: purified primary splenic B cells from Sgms2+/+ mice (C57BL/6 background); Sgms2-/- B cells as knockout control
# T1 sequence (Q9D4B1 1-365): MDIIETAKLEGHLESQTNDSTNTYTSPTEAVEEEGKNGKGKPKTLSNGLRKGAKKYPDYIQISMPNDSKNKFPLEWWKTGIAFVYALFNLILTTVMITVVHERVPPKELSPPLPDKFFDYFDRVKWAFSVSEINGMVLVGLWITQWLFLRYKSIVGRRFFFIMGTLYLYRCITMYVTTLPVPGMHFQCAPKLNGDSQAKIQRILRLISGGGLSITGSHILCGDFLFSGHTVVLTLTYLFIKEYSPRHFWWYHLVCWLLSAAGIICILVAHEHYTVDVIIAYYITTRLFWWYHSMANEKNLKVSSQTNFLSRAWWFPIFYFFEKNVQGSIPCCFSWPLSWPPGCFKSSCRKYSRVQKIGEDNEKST
# [4] = tested on: NZBWF1 mice; assay: Serum total IgG and anti-dsDNA IgG titers by ELISA in NZBWF1 mice (spontaneous SLE mouse model); type: in vivo; conditions: female NZBWF1 mice, four weeks
# From the text: Given that PKCδ nuclear translocation was promoted by enhancing SMS2 activity with 2OHOA, whether this drug could be adopted to strengthen B cell tolerance in NZBWF1 mice that spontaneously develop SLE due to impaired tolerance caused by multiple genetic variants other than Sgms2 or Prkcd was examined. Remarkably, the expected increase in titers of anti-dsDNA IgGs in the sera of NZBWF1 mice over the same time frame as sham treated mice was impeded by 2OHOA treatment. […] This treatment started when the mouse serum anti-dsDNA IgG level reached the levels between 1,000 ng/ml and 30,000 ng/ml. The titers of serum total IgG and anti-dsDNA IgG were measured by ELISA. Shown in the graph are ratios of the IgG titers after treatment to the titers before treatment. Mann-Whitney test (2 tailed) was used to calculate p values, SEMs, and other parameters as shown in the graph and table. Data represents the results of 15 2OHOA-treated and 10 empty vehicle-treated mice.
# [5] = tested on: splenic B cells; assay: Lysenin toxicity assay of surface SM levels in splenic B cells; type: cell-based, mouse; conditions: Sgms2-/- B cells, SM supplementation
# [6] = as disclosed in U.S. Pat. No. 9,359,281
compound,measurement,setting,value
CC/C=C\C/C=C\C/C=C\CCCCCCC(O)C(=O)O (stereo not drawn) [2-hydroxy-alpha-linoleic acid],stimulation of SMS activity,[1]; [6],stimulate SMS activity
CCCCC/C=C\C/C=C\C/C=C\CCCC(O)C(=O)O (stereo not shown) [2-hydroxy-gamma-linoleic acid],stimulation of SMS activity,[1]; [6],stimulate SMS activity
CCCCC/C=C\C/C=C\CCCCCCC(O)C(=O)O (stereo not shown) [2-hydroxylinoleic acid],stimulation of SMS activity,[1]; [6],stimulate SMS activity
CCCCCC/C=C\CCCCCCC(O)C(=O)O (stereo not shown) [2-hydroxypalmitoleic acid],stimulation of SMS activity,[1]; [6],stimulate SMS activity
"CCCCCCCC/C=C\CCCCCCC(O)C(=O)O (stereo not shown) [2OHOA, 2-hydroxyoleic acid]",PKCδ nuclear translocation,"[2]; Sgms2-/- B cells, 2OHOA-treated",but not in Sgms2^−/− B cells
same,PKCδ nuclear translocation,"[2]; purified Sgms2+/+ B cells, 2OHOA-treated",increased
same,SMS2-derived DAG level (plasma membrane DAG),[3],increased
same,increase in titers of anti-dsDNA IgGs in the sera,"[4]; oral gavage 400 mg/kg per day, vs sham treated mice",impeded
same,total serum IgG titers,[4]; oral gavage 400 mg/kg/day,without reducing the total serum IgG titers
"CCCCCCCC/C=C\CCCCCC[C@H](O)C(=O)O [(S)-2OHOA, (S)-2-hydroxyoleic acid]",stimulation of SMS activity,[1]; compared with (R)-2-hydroxyoleic acid or a mixture of the two stereoisomers,more strongly stimulates SMS activity
"C/C=C(/C)C(=O)O[C@H]1C(C)=C[C@]23C(=O)[C@@H](C=C(CO)[C@@H](O)[C@]12O)[C@H]1[C@@H](C[C@H]3C)C1(C)C [I3A, ingenol-3-angelate]",nuclear PKCδ,[2]; Sgms2+/+ B cells cultured for 30 minutes,increased nuclear PKCδ
same,nuclear PKCδ,[2]; Sgms2-/- B cells cultured for 30 minutes,increased nuclear PKCδ
CCCCCCCCCCCCCC(=O)O[C@@H]1[C@@H](C)[C@@]2(O)[C@@H](C=C(CO)C[C@]3(O)C(=O)C(C)=C[C@@H]23)[C@@H]2C(C)(C)[C@]12OC(C)=O [PMA],PKCδ nuclear translocation,"[2]; Sgms2+/+ B cells, PMA",promotion of PKCδ nuclear translocation
same,PKCδ nuclear translocation,"[2]; Sgms2-/- B cells, PMA",but not in Sgms2^−/− B cells
sphingomyelin [SM],nuclear PKCδ level,"[2]; Sgms2-/- B cells, SM supplementation 24 hr",could not restore
same,surface SM level,[5],Restoration of surface SM level
